The test system of assay [1] is aminoglycoside aptamer (tobramycin-binding aptamer) (DNA, aptamer) GGGACTTGGTTTAGGTAATGAGTCCC
In words: three-electrode square-wave voltammetry, 240 Hz. As to conditions: 137 mM NaCl, 2.7 mM KCl; 1x PBS, ambient temperature; saturable Langmuir-Hill isotherm, reversible; immobilised aptamer.

For assay [2] the test system is unchanged. In words: square-wave pulsed OECT (aptamer on gate), 70 Hz. To be noted: 137 mM NaCl, 2.7 mM KCl; 1x PBS, ambient temperature; saturable Langmuir-Hill isotherm, reversible; immobilised aptamer.

For the molecule `NC[C@H]1O[C@H](O[C@H]2[C@H](O)[C@@H](O[C@H]3O[C@H](CO)[C@@H](O)[C@H](N)[C@H]3O)[C@H](N)C[C@@H]2N)[C@H](N)C[C@@H]1O`, the binding result in assay [1] and in assay [2] was “yes” each time.

Source of the values: publication PMC9668304 (2022).
